In one assay the test system is VCaP cells. In words: VCaP cell proliferation inhibition experiment (CellTiter-Glo). The settings on record: Homo sapiens, 168 h. The format is cell-based. Here is the method: After centrifugation and resuspension, viable cell counting was performed using a Vi-Cell XR cell counter. […] Then, 180 µl of the cell suspension was added per well to a 96-well cell culture plate at a cell density of 7,500 cells/well. At the time of seeding, T0 wells were also prepared. The following day, R1881 at a final concentration of 0.1 nM and compounds at various concentrations were added. The plate was placed back into the incubator and cultured for an additional 7 days. At the time of compound addition, the T0 plate was measured using the CellTiter-Glo (CTG) kit (Promega, Cat. No. G7572) and recorded as RLU0. Following incubation, 75 µl of pre-thawed and room temperature-equilibrated CellTiter-Glo solution was added to each well. […] The results were processed according to Equation (2). […] Growth% = (RLUcompound−RLU0)/(RLUcontrol−RLU0) × 100% [formula]

In another assay the target is T1, AR protein (Homo sapiens, UniProt P10275).
T1 construct: VCap is a human prostate cancer cell line purchased from ATCC; host or cells: VCaP human prostate cancer cells
T1 sequence (P10275 1-920): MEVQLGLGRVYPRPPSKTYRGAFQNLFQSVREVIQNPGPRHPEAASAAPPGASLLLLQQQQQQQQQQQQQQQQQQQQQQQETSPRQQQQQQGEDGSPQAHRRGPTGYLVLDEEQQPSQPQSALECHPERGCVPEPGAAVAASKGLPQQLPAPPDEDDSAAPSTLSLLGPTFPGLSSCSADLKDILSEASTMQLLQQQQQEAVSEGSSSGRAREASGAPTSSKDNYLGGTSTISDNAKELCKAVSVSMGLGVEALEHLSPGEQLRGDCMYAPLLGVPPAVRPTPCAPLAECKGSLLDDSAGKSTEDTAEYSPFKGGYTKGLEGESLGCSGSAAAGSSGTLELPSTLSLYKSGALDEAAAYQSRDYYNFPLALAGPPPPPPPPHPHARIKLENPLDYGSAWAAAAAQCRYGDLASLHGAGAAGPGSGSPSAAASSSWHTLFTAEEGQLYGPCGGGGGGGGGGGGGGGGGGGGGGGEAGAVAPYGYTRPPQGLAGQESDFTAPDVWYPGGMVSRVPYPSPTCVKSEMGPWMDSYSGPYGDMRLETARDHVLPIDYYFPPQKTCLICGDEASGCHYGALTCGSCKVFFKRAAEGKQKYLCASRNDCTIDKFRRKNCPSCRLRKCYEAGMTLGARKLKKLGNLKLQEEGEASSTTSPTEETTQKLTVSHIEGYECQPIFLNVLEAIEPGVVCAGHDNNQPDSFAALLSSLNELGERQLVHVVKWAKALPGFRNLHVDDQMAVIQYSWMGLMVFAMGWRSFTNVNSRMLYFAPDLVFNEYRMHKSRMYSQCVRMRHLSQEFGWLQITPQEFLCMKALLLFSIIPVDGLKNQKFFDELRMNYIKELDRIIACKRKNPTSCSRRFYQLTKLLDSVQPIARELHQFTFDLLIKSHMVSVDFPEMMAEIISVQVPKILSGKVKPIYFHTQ
Nature of the assay: Detection of AR degradation in VCaP cells (automated western blot). The settings on record: for DC50: degradation of AR protein in VCaP cells, 24 hours incubation, read-out: DC50. The format is cell-based. Here is the method:
VCap is a human prostate cancer cell line purchased from ATCC and cultured under the following conditions: DMEM + 10% FBS + 1% penicillin-streptomycin solution. The cells were cultured in a 37°C, 5% CO2 incubator. The cells were seeded in a 6-well plate, with 5 × 10^5 cells/well. After seeding, compounds at various concentrations were added, and the plate was incubated for 24 hours in the 37°C, 5% CO2 incubator. Following incubation, the cells were harvested and RIPA lysis buffer (beyotime, Cat. P0013B) was added. The cells were lysed on ice for 15 minutes and centrifuged at 12,000 rpm at 4°C for 10 minutes. The supernatant protein samples were collected and the protein was quantified using the BCA kit (Beyotime, Cat. P0009). Then the protein was diluted to 0.25 mg/mL. The expressions of AR (CST, Cat.5153S) and the internal reference β-actin (CST, Cat. 3700S) were detected using a fully automated western blot quantitative analyser (Proteinsimple). Using the "Compass for SW" software, the relative peak area of AR was calculated when the internal reference area was 10,000. The proportion of AR relative to the solvent control group at various drug concentrations was calculated according to Equation (1), where ARtreat represents the relative peak area of the compound-treated group, and ARsolvent represents the relative peak area of the solvent control group. The processed data obtained from Equation (1) were analysed using GraphPad Prism 8.3.0 software, and the DC50 value was calculated using a four-parameter nonlinear regression model. The degradation rate at a specified concentration was determined as 100-AR%. AR% = ARtreat/ ARsolvent × 100% [formula]
Background: A western blot detects proteins with antibodies after separation by electrophoresis.

Experimental findings from patent EP4763845A1, “CYANO AROMATIC RING DERIVATIVE AND PHARMACEUTICAL USE THEREOF” (Haisco Pharmaceutical Group Co., Ltd., priority 2023, dated 2025) are described below.

Some results are limits rather than exact numbers.

For `[2H]C([2H])([2H])Oc1cc(O[C@H]2C(C)(C)[C@H](NC(=O)c3ccc(N4CCC(CN5CCN6c7cc(F)c(C(=O)N[C@H]8CCC(=O)NC8=O)cc7CC[C@@H]6C5)CC4)nn3)C2(C)C)ccc1C#N` [Compound 87], the GI50 (in general, the concentration giving 50% growth inhibition) with VCaP cells is less than 500 nM.
As to `CC1(C)[C@H](NC(=O)c2ccc(N3CCC(CN4CCN5c6cc(F)c(N7CCC(=O)NC7=O)cc6CC[C@H]5C4)CC3)cc2)C(C)(C)[C@H]1Oc1ccc(C#N)c2ncccc12` [Trifluoroacetate of compound 33], on AR protein, the DC50 (as a rule, the concentration giving 50% degradation) was less than 100 nM. The compound further had a GI50 with VCaP cells of less than 500 nM.
Compound `CC1(C)[C@H](NC(=O)c2ccc(N3CCC(CN4CCN5c6cc(F)c(C(=O)N[C@H]7CCC(=O)NC7=O)cc6CC[C@@H]5C4)CC3)cc2)C(C)(C)[C@H]1Oc1ccc(C#N)c(Cl)c1` [Compound 52] returned a GI50 with VCaP cells of less than 300 nM.
The same measure, in the same setting: in the case of `[2H]C([2H])([2H])Oc1cc(O[C@H]2C(C)(C)[C@H](NC(=O)c3ccc(N4CCC5(CC4)CC(N4CCN6c7cc(F)c(N8CCC(=O)NC8=O)cc7CC[C@@H]6C4)C5)cc3)C2(C)C)ccc1C#N` [Compound 94] it was less than 300 nM.
In the case of `[2H]C([2H])([2H])Oc1cc(O[C@H]2C(C)(C)[C@H](NC(=O)c3ccc(N4CCC(CN5CCN6c7cc(F)c(C(=O)N[C@H]8CCC(=O)NC8=O)cc7CC[C@@H]6C5)CC4)cc3)C2(C)C)ccc1C#N` [Compound 40], the DC50 at AR protein was less than 100 nM. Further, in the assay on VCaP cells, the GI50 is less than 300 nM.
`CC1(C)[C@H](NC(=O)c2ccc(N3CCC4(CC3)CC(CN3CCN5c6cc(F)c(C7CCC(=O)NC7=O)cc6CC[C@@H]5C3)C4)cc2)C(C)(C)[C@H]1Oc1ccc(C#N)c2ncccc12` (stereo partly shown) [Compound 72]: on AR protein, the 50% degradation concentration (DC50) was less than 100 nM.
On the same count and under the same terms, in the case of `[2H]C([2H])([2H])Oc1cc(O[C@H]2C(C)(C)[C@H](NC(=O)c3ccc(N4CCC5(CC4)CC(CN4CCN6c7cc(F)c(C8CCC(=O)NC8=O)cc7CC[C@H]6C4)C5)cc3)C2(C)C)ccc1C#N` (stereo partly shown) [Compound 43] it was less than 100 nM.
With `[2H]C([2H])([2H])Oc1cc(O[C@H]2C(C)(C)[C@H](NC(=O)c3ccc(N4CCC(CN5CCN6c7cc(F)c(C8CCC(=O)NC8=O)cc7CC[C@H]6C5)CC4)cc3)C2(C)C)ccc1C#N` (stereo partly shown) [Compound 37], on AR protein, the DC50 was less than 100 nM. The compound further came in with a GI50 with VCaP cells of less than 300 nM.
In the assay with VCaP cells, `[2H]C([2H])([2H])Oc1cc(O[C@H]2C(C)(C)[C@H](NC(=O)c3ccc(N4CCC(CN5CCN6c7cc(F)c(C8CCC(=O)NC8=O)cc7CC[C@H]6C5)CC4)nn3)C2(C)C)ccc1C#N` (stereo partly shown) [Compound 86] yielded a GI50 of less than 300 nM.
Regarding `COc1cc(O[C@H]2C(C)(C)[C@H](NC(=O)c3ccc(N4CCC5(CC4)CC(N4CCN6c7cc(F)c(N8CCC(=O)NC8=O)cc7CC[C@H]6C4)C5)cc3)C2(C)C)ccc1C#N` [Trifluoroacetate of compound 84], the DC50 on AR protein was less than 100 nM.
With `CC1(C)[C@H](NC(=O)c2ccc(N3CCC(CN4CCN5c6cc(F)c(C7CCC(=O)NC7=O)cc6CC[C@@H]5C4)CC3)cc2)C(C)(C)[C@H]1Oc1ccc(C#N)c(C2CC2)c1` (stereo partly shown) [Compound 117], on AR protein (AR protein in VCaP cells, concentration of 30 nM, 24 hours), the Degradation rate % was more than 70%.
For the compound `COc1cc(O[C@H]2C(C)(C)[C@H](NC(=O)c3ccc(N4CCC(N5CCN6c7cc(F)c(C(=O)N[C@H]8CCC(=O)NC8=O)cc7CC[C@@H]6C5)CC4)cc3)C2(C)C)ccc1C#N` [Trifluoroacetate of compound 22], the DC50 on AR protein was less than 100 nM.
In the case of `COc1cc(O[C@H]2C(C)(C)[C@H](NC(=O)c3ccc(N4CCC(CN5CCN6c7cc(F)c(N8CCC(=O)NC8=O)cc7CC[C@@H]6C5)CC4)nn3)C2(C)C)ccc1C#N` [Trifluoroacetate of compound 62], the DC50 on AR protein is less than 100 nM.
